# Results taken from ChEMBL document CHEMBL4354833, “Kinetic Target-Guided Synthesis: Reaching the Age of Maturity” (J Med Chem, 2020).
# Experiments:
# [1] = target: Luciferin 4-monooxygenase (Photinus pyralis, UniProt P08659); assay: Inhibition of Photinus pyralis luciferase using ATP and D-luciferin in presence of Coenzyme A and DL-cysteine by luminescence based assay
# [2] = target: T1, Signal transducer and activator of transcription 5B (Homo sapiens, UniProt P51692); assay: Binding affinity to MBP-tagged recombinant STAT5b-SH2 domain (unknown origin) using carboxyfluoresceine-labeled phosphotyrosine octapeptide incubated for 12 hrs by fluorescence polarization assay
# T1 sequence (P51692 whole entry): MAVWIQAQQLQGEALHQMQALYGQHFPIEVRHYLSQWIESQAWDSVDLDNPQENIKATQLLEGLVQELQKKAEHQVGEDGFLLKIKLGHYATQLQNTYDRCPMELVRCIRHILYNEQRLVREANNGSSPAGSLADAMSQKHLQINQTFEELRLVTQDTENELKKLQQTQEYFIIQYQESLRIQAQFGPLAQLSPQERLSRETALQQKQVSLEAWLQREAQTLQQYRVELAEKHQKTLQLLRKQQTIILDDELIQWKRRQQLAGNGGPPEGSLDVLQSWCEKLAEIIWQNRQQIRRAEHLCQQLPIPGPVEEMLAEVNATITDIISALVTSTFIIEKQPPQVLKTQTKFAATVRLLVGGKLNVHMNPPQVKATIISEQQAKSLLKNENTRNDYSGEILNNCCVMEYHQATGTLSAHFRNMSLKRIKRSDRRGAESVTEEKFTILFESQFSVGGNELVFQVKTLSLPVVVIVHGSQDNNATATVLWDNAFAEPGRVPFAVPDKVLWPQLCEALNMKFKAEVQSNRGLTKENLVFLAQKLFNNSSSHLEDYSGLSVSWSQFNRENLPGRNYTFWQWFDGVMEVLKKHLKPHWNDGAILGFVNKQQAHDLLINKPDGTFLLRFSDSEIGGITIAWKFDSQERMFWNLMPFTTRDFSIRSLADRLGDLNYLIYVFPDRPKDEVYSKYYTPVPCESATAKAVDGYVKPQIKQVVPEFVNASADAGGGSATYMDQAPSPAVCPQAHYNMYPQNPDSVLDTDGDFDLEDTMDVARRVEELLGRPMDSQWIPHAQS
# Streptococcus pneumoniae = assay: Antimicrobial activity against Streptococcus pneumoniae ATCC 49619; assay type: functional
# Bacterial 70S ribosome = assay: Binding affinity to Escherichia coli 70S ribosome assessed as reduction in BODIPY-Erythromycin A binding incubated for 1 hr by fluorescence polarization assay; assay type: subcellular
# Carbonic anhydrase 2 = Carbonic anhydrase 2 (Bos taurus, UniProt P00921); assay: Binding affinity to bovine carbonic anhydrase 2
# Sequence of Carbonic anhydrase 2 (P00921 whole entry): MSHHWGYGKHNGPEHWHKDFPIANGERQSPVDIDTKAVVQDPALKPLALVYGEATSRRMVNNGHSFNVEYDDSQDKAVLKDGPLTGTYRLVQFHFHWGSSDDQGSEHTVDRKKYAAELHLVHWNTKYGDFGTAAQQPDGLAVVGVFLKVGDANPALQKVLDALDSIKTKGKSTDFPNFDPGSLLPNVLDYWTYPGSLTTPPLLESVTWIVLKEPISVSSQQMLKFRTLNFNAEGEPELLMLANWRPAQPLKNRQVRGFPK
# [3] = Biodistribution in plasma of SCID mouse measured after 10 mins; assay type: ADME, organism-based; details: in vivo
# [4] = Biodistribution in RBC of SCID mouse measured after 10 mins; assay type: ADME, organism-based; details: erythrocyte
# [5] = target: Bacterial 70S ribosome (Bacteria) (UniProt P0A7V0+P60723+P0AG67+P0A7R5+P0A7R9+P0A7S3+P0A7S9+P0AG59+P0ADZ4+P0A7T3+P0AG63+P0A7T7+P0A7U3+P0A7U7+P68679+P0A7V3+P0A7V8+P0A7W1+P02358+P02359+P0A7W7+P0A7X3+P0A7J3+P0A7J7+P0AA10+P0ADY3+P02413+P0ADY7+P0AG44+P0C018+P0A7K6+P0A7L0+P0A7L3+P0AG48+P61175+P0ADZ0+P60624+P68919+P0A7L8+P0A7M2+P0A7M6+P60422+P0AG51+P0A7N1+P0A7M9+P0A7N4+P0A7N9+P0A7P5+P0A7Q1+Q2EEQ2+P0A7Q6+P60438+P62399+P0AG55+P0A7K2); assay: Inhibition of 70S ribosome in Escherichia coli cell free system assessed as reduction in protein synthesis by measuring EmGFP synthesis at 1 uM by cell-free translation inhibition method relative to control; assay type: subcellular
# Rattus norvegicus = organism: Rattus norvegicus; assay: animal or person; details: 3 h
# Description: Antiinflammatory activity in rat model of carrageenan-induced paw edema model after 3 hrs
# [6] = target: T2, Bifunctional ligase/repressor BirA (Staphylococcus aureus, UniProt A0A0E7NXW5); assay: Binding affinity to Staphylococcus aureus biotin protein ligase
# T2 sequence (A0A0E7NXW5 whole entry): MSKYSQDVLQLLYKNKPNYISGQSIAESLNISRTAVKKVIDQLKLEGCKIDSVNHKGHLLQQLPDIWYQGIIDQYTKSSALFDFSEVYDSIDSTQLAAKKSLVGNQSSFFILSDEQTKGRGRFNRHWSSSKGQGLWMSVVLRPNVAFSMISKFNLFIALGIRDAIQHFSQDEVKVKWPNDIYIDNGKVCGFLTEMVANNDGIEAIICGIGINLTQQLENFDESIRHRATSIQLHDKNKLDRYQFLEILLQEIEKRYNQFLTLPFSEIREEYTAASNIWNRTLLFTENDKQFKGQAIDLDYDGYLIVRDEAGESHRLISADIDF
# [7] = Inhibition of Enterovirus A71 3c protease
# [8] = target: T3, Signal transducer and activator of transcription 5B (Homo sapiens) (UniProt P51692); assay: Binding affinity to MBP-tagged recombinant STAT5b-SH2 domain (unknown origin) assessed as change in melting temperature by CETSA method
# T3 sequence (whole entry): T1 sequence (P51692 whole entry)
# [9] = target: T4, Signal transducer and activator of transcription 5B (Mus musculus) (UniProt P42232); assay: Inhibition of STAT5b in mouse BaF3/FLT3-ITD cells incubated for 6 hrs by CETSA-ITDRF assay; assay type: cell-based
# T4 sequence (whole entry): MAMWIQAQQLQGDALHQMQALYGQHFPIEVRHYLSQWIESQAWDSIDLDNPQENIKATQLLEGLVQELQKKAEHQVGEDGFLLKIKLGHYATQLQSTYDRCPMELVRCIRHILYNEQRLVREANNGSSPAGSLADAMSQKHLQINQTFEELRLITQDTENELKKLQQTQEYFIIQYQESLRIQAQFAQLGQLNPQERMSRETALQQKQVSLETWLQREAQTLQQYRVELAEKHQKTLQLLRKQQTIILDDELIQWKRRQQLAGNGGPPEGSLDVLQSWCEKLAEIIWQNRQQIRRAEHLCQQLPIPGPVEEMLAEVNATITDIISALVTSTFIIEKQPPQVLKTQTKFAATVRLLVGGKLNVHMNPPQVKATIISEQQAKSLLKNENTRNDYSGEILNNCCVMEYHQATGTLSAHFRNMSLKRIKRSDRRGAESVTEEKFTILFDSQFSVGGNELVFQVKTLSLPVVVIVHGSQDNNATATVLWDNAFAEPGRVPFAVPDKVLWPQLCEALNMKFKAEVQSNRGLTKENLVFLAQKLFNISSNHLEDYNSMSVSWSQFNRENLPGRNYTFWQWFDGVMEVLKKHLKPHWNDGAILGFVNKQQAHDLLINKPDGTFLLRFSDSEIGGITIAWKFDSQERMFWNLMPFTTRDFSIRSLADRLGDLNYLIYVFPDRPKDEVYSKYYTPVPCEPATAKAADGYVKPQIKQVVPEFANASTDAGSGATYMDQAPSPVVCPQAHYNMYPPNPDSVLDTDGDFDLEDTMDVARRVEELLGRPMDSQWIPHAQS
# Prothrombin = Prothrombin (Homo sapiens, UniProt P00734); assay: Inhibition of thrombin (unknown origin)
# [10] = target: T5, Prostaglandin G/H synthase 2 (Homo sapiens, UniProt P35354); assay: Binding affinity to human COX2
# T5 sequence (P35354 whole entry): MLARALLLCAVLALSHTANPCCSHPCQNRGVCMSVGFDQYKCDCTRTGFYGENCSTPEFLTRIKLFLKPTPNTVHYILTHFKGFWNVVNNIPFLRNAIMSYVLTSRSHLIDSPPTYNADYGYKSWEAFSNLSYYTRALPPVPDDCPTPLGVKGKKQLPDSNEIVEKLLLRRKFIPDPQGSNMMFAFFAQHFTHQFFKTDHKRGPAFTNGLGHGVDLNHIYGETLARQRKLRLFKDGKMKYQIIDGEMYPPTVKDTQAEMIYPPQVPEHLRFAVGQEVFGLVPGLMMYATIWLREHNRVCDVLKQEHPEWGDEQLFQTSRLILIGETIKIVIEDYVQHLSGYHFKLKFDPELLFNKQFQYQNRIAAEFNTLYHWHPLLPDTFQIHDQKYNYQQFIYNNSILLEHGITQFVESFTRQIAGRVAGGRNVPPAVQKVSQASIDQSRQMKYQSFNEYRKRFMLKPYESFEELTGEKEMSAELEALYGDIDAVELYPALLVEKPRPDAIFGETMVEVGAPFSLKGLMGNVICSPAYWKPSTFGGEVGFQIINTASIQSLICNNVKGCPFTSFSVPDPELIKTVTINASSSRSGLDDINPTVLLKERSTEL
# [11] = Antitumor activity against mouse BaF3/FLT3-ITD cells implanted in NSG mouse assessed as induction of tumor growth regression at 200 mg/kg, sc QD for 14 days relative to control; assay type: functional
# [12] = target: T4, Signal transducer and activator of transcription 5B (Mus musculus); assay: Inhibition of STAT5b phosphorylation in mouse BaF3/FLT3-ITD cells at 25 uM after 6 hrs by Western blot analysis relative to control; assay type: cell-based
# NAD kinase 1 = target: T6, NAD kinase 1 (Listeria monocytogenes serovar 1/2a (strain ATCC BAA-679 / EGD-e), UniProt Q8Y8D7); assay: Inhibition of Listeria monocytogenes NAD kinase assessed as suppression of reduced NADP formation by yeast glucose-6-phosphate dehydrogenase coupled assay
# T6 sequence (Q8Y8D7 whole entry): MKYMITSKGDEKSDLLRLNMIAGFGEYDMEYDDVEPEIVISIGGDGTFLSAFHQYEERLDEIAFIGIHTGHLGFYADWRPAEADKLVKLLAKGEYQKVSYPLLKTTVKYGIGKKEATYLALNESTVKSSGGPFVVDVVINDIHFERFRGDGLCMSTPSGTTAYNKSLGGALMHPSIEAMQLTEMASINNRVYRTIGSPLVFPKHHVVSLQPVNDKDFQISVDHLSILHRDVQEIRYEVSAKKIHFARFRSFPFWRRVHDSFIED
# Coagulation factor X = Coagulation factor X (Homo sapiens, UniProt P00742); assay: Inhibition human FA10a using Boc-LeuGly-Arg-AMC fluorogenic substrate
# Sequence of Coagulation factor X (P00742 41-179 limits assumed): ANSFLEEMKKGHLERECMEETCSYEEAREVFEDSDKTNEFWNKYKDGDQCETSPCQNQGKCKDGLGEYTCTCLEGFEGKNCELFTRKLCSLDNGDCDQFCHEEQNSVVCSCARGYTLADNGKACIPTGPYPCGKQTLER
# Sequence of Coagulation factor X (P00742 235-488 limits assumed): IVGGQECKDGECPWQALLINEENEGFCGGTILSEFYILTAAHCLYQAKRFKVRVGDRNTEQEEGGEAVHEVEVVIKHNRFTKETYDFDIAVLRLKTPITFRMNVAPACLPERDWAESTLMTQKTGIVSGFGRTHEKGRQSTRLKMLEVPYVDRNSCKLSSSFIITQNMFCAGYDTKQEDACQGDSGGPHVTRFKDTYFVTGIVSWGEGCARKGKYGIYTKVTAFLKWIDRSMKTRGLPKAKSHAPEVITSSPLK
# Sequence of Luciferin 4-monooxygenase (P08659 whole entry, the tested form may be a part): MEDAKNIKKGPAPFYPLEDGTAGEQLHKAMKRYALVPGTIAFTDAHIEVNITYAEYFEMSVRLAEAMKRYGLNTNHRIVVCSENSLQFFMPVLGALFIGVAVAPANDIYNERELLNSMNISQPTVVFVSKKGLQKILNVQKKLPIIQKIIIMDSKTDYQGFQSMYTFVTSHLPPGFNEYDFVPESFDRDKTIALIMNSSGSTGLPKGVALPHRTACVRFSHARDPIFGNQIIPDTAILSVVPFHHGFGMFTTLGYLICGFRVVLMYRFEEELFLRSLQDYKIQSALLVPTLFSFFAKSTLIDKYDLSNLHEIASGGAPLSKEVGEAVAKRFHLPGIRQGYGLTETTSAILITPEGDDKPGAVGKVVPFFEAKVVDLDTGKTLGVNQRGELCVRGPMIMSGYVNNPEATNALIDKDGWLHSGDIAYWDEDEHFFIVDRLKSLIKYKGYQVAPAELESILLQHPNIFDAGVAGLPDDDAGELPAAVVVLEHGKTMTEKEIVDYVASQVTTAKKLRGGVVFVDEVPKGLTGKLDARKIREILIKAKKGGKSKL
compound,measurement,setting,value
Nc1ncnc2c1ncn2[C@H]1O[C@@H](COP(=O)(O)OC(=O)c2cccc(-c3noc(-c4ccccc4F)n3)c2)[C@H](O)[C@@H]1O,IC50,[1],0.01 µM
O=C(O)c1nonc1NCn1cccn1,Ki,[2],> 5000 µM
O=C(O)c1nonc1NCn1nnnc1-c1ccccc1,Ki,[2],> 5000 µM
CC[C@H]1OC(=O)[C@@](C)(F)C(=O)[C@H](C)[C@@H](O[C@@H]2O[C@H](C)C[C@H](N(C)C)[C@H]2O)[C@](C)(OC)C[C@@H](C)C(=O)[C@H](C)[C@H]2N(CCCCN=[N+]=[N-])C(=O)O[C@]12C,MIC,Streptococcus pneumoniae,2 ng/mL
same,Kd,Bacterial 70S ribosome,0.0021 µM
O=C(O)c1nonc1NCn1nnnc1-c1cccc(F)c1,Ki,[2],> 5000 µM
CC(C)[C@H](C(=O)NCc1cc([18F])ccn1)n1cc(-c2ccc(S(N)(=O)=O)cc2)nn1,Kd,Carbonic anhydrase 2,0.0005 µM
same,Drug uptake,[3],10%
same,Drug uptake,[4],90%
CC[C@H]1OC(=O)[C@@](C)(F)C(=O)[C@H](C)[C@@H](O[C@@H]2O[C@H](C)C[C@H](N(C)C)[C@H]2O)[C@](C)(OC)C[C@@H](C)C(=O)[C@H](C)[C@H]2N(CCCCn3cc(-c4cccc(N)c4)nn3)C(=O)O[C@]12C [SOLITHROMYCIN],inhibition,[5],47%
same,MIC,Streptococcus pneumoniae,6 ng/mL
same,Kd,Bacterial 70S ribosome,0.0006 µM
O=C(O)c1nonc1NCn1cncn1,Ki,[2],> 5000 µM
Cc1cc(-n2cc(-c3ccc(N)cc3)nn2)n(-c2ccc(S(C)(=O)=O)cc2)n1,ED50,Rattus norvegicus,0.12 mg/kg
O=C1N[C@H]2[C@H](CS[C@H]2CCCCc2cn(CCCNc3ccc([N+](=O)[O-])c4nonc34)nn2)N1,Ki,[6],1.4 µM
O=C[C@H](C[C@@H]1CCCNC1=O)NC(=O)[C@H](Cc1ccccc1)NC(=O)C(O)CC(=O)c1ccncc1 (stereo not given in full),IC50,[7],0.15 µM
COC(=O)c1nonc1NCn1nnnc1-c1cccc(OC(F)(F)F)c1,Ki,[2],> 5000 µM
O=C(O)c1nonc1NCn1nnc2ccccc21,Ki,[2],> 5000 µM
O=C(O)c1nonc1NCn1cnnn1,IC50,[2],1.4 µM
same,ΔTm,[8],8 °C
same,Occ50,[9],28 µM
N=C(N)c1ccc(NC(C(=O)NCc2ccccc2)c2ccccc2)cc1 (stereo not given),Ki,Prothrombin,0.05 µM
Cc1cnc(Cn2cc(-c3onc(-c4ccccc4)c3-c3ccc(S(N)(=O)=O)cc3)nn2)c(C)c1[18F],Kd,[10],0.01 µM
O=C(O)c1nonc1NCn1nnnc1Cc1ccccc1,Activity,[11],28%
same,IC50,[2],2.9 µM
same,inhibition,[12],> 50%
COC(=O)c1nonc1NCn1cnnn1,IC50,[2],37 µM
Cc1cc(C(=O)N[C@@H](Cc2ccc(F)cc2)C(=O)N[C@H](C=O)C[C@@H]2CCCNC2=O)no1,IC50,[7],0.32 µM
[N-]=[N+]=NC[C@H]1O[C@@H](n2c(SCC(=O)NC[C@H]3O[C@@H](n4cnc5c(N)ncnc54)[C@H](O)[C@@H]3O)nc3c(N)ncnc32)[C@H](O)[C@@H]1O,Ki,NAD kinase 1,25 µM
CC[C@H]1OC(=O)[C@@](C)(F)C(=O)[C@H](C)[C@@H](O[C@@H]2O[C@H](C)C[C@H](N(C)C)[C@H]2O)[C@](C)(OC)C[C@@H](C)C(=O)[C@H](C)[C@H]2N(CCCCn3cc(-c4cccc(N(C)C)c4)nn3)C(=O)O[C@]12C,inhibition,[5],37%
same,MIC,Streptococcus pneumoniae,5 ng/mL
same,Kd,Bacterial 70S ribosome,0.0014 µM
Cc1cc(-n2cc(-c3ccc(F)cc3)nn2)n(-c2ccc(S(C)(=O)=O)cc2)n1,ED50,Rattus norvegicus,0.44 mg/kg
CCOC(=O)CC[C@H](C[C@@H]1CCCNC1=O)NC(=O)[C@H](Cc1ccccc1)NC(=O)C(O)CC(=O)c1ccncc1 (stereo not given in full),IC50,[7],1.43 µM
N=C(N)c1ccc(CN)cc1,Ki,Coagulation factor X,680 µM
Nc1nonc1C(=O)O,Ki,[2],420 µM
O=C(O)c1nonc1NCn1ccnn1,Ki,[2],> 5000 µM
CCOC(=O)/C=C/[C@H](C[C@@H]1CCCNC1=O)NC(=O)[C@H](Cc1ccccc1)NC(=O)C=O,IC50,[7],16.4 µM
O=C(O)c1nonc1NCn1nnnc1-c1cccc(C(F)(F)F)c1,Ki,[2],> 5000 µM
O=C(O)c1nonc1NCn1nnnc1-c1ccc(F)cc1,Ki,[2],0.6 µM
